The subject of one experiment is MSU-induced gout. Description: In vivo murine air pouch model of human gout (MSU). To be noted: Balb/c mice, oral twice a day for six days, 10, 30 or 100 mg/kg. The procedure:
In Vivo Murine Air Pouch Model of Human Gout Compounds of the present invention were also evaluated in mice in an in vivo efficacy model for inhibiting monosodium urate (MSU) induced model of gout. An exemplary protocol for this assay follows. A sterile air pouch was created in Balb/c mice. I-67 was administered orally to the mice twice a day for six days at doses of either 10, 30 or 100 mg/kg. Following the last dose the mice were anesthetized and the air pouch was injected with a suspension of monosodium urate (MSU) to induce the inflammatory response. Four hours after the injection the air pouch exudate was collected and the number of white blood cells was measured.

Another experiment has as its target T1, IRAK4 (Homo sapiens, UniProt Q9NWZ3).
T1 sequence (Q9NWZ3 1-460): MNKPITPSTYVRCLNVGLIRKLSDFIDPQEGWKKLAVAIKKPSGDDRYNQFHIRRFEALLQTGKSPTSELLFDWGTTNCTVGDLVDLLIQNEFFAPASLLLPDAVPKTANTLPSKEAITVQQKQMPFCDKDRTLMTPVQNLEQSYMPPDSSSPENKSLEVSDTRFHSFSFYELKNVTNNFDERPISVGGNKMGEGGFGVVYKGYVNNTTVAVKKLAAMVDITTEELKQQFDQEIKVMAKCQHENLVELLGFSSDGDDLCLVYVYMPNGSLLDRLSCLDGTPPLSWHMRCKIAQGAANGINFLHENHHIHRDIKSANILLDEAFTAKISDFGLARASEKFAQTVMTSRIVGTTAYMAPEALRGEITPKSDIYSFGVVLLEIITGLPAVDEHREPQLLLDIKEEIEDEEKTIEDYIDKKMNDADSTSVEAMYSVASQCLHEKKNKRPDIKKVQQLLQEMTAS
Kind of experiment: IRAK-4 activity inhibition assay (Caliper). The class given is biochemical. Particulars: 37 μM ATP, 3.5 nM IRAK4.

A value given as a limit tells only on which side of the number the result lay.

For orientation: IC50 means the midpoint of a concentration-inhibition curve. Lower therefore signals greater potency in that assay. With `NC(=O)C[C@H]1CCc2sc3ncnc(O[C@H]4CC[C@H](N5CCOCC5)CC4)c3c21` [Compound I-67, 2-((R)-4-(((1r,4R)-4-morpholinocyclohexyl)oxy)-6,7-dihydro-5H-cyclopenta[4,5]thieno[2,3-d]pyrimidin-5-yl)acetamide], the “Efficacy in MSU-induced gout (white blood cell counts in air pouch exudate)” value in the experiment with MSU-induced gout is “efficacious”. For the same compound, the IC50 against IRAK4 was below 5 µM.

Values taken from patent US20160193216A1 (Nimbus Iris, Inc., priority 2012, published 2016).
